Measured values taken from PMC10141604, “Small-Molecule Inhibition of Androgen Receptor Dimerization as a Strategy against Prostate Cancer” (ACS Central Science, 2023).

What was measured:
[1] = tested on: LNCaP cells; assay: Clonogenic (colony forming) assay, LNCaP; format: cell-based; conditions: 2 and 20 μM, 16-18 days
Procedure: 1.5× 10^3 cells/well of LNCaP or 22RV1 were seeded into a 6-well plate. After 1 day
incubation, the medium of each well was removed and washed thrice using PBS. […]

[2] = tested on: LNCaP cell line; assay: Cell cycle and apoptosis of LNCaP cells (flow cytometry); format: cell-based
Procedure: (§1) calculating volume (V= 0.5 × L × W2). Finally, the mice were sacrificed and the tumors were harvested for hematoxylin and eosin (H&E) staining.
(§2) Luciferase Reporter Assays for PR, GR, and MR
PC3, HeLa, and HEK293T cells were cultured using 5% CSS RPMI-1640, 5% CSS RPMI-1640 and 10% FBS DMEM media in 96-well plates for 24 h, respectively. For PR induction, PC3 (1 × 10^4 cells/well) were transfected with 50 ng pcDNA3-PRB (#89130, Addgene), 24 ng pGL4.36[luc2P MMTV Hygro] (Promega) and 5 ng Renilla using HG-TransGeneTM transfection reagent (#TG-10012, Genomeditech) for 4 h. […] The luciferase activities were assessed using the Dual-Glo Luciferase system (#E1910, Promega). […]
(§3) Cell cycle were determined after 48 h incubation by Cell Cycle Staining Kit (#CCS012, MULTI SCIENCES) using […]
Cytomic FC 500MCL flow cytometer (Beckman Coulter, Inc). Cell apoptosis were determined after 24 h incubation by Annexin V-FITC/PI apoptosis kit (#AP101, MULTI SCIENCES) using BD FACS S ORP ARIA II flow cytometer (BD Biosciences).
Graphpad Prism (v.8.4) program was adopted for statistical analysis and data were presented as the mean ± standard error of mean (SEM). The value of p was determined on the basis of at least three independent assays using Student’s t-test, one-way ANOVA or two-way ANOVA analysis.

[3] = molecular target: FL-AR^F876L (Homo sapiens, UniProt P10275, F877L); assay: Dual-luciferase reporter assay for FL-AR F876L in PC3 cells
FL-AR^F876L, sequence (P10275 whole entry F877L): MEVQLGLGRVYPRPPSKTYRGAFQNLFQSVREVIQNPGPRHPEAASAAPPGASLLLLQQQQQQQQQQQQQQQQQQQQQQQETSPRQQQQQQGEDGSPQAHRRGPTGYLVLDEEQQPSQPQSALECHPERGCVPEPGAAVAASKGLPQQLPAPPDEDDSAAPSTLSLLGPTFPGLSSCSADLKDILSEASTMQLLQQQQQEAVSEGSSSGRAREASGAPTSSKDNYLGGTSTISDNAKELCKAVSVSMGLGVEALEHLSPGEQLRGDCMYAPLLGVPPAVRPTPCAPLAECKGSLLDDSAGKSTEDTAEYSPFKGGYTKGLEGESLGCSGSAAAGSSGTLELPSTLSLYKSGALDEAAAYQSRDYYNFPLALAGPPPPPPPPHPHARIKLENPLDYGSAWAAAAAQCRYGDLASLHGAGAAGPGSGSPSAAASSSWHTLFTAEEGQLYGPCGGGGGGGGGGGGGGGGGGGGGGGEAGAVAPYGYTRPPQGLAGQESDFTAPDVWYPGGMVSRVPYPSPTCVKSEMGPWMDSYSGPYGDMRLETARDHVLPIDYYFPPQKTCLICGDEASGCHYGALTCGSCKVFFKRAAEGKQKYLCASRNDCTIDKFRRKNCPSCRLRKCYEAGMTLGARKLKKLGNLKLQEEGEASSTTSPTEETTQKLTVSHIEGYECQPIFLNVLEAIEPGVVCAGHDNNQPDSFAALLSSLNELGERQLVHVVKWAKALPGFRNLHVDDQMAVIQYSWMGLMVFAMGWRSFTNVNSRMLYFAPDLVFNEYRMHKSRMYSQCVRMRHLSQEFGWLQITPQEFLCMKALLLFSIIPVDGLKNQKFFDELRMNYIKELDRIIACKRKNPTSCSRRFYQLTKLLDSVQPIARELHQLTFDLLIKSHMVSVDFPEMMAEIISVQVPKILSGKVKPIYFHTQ
Procedure: Luciferase Reporter Assays for FL -ARF876L and FL-ARF876L/T877A
constructed on the basis of the human full length wild type AR plasmid pCMV -hAR
transfected with 70 ng/well of FL -AR plasmid together with 24 ng of ARR2PB -Luc, and 5 ng of Renilla. After 1 day incubation at 37 °C , the antagonistic models were employed
After another 24 h incubation, the luciferase activities were determined by the Dual -Glo Luciferase system (#E1910, Promega) according to the

[4] = molecular target: T1, GR (Homo sapiens, UniProt P04150); assay: Luciferase reporter assay for GR (HeLa cells); format: cell-based; conditions: 10 μM, 1 nM dexamethasone
T1 construct: host or cells: HeLa
T1 sequence (P04150 1-777): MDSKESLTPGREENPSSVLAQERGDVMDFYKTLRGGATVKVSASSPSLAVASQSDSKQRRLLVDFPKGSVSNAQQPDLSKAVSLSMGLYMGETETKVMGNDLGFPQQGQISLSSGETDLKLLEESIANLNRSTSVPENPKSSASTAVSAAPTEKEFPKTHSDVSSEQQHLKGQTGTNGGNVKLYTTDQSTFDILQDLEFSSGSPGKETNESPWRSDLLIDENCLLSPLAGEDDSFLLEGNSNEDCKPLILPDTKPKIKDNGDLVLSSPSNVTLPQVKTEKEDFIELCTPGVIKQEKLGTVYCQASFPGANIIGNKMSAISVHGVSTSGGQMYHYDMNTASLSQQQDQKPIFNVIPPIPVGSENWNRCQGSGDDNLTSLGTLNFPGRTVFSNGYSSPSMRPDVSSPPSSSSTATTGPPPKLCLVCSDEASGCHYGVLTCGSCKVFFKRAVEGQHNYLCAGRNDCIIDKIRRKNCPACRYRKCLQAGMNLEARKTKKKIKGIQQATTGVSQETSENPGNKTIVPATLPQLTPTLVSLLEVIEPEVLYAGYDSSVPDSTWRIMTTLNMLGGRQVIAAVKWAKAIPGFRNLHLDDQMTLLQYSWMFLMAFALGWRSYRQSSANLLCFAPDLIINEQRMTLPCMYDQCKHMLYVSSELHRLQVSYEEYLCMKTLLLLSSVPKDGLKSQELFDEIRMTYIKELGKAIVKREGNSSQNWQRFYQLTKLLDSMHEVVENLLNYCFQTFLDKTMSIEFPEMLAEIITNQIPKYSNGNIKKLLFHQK
Procedure: as §1, §2
Addgene), 24 ng pGL4.36[luc2P MMTV Hygro] (Promega) and 5 ng Renilla using HG- […]
Addgene), 24 ng pGL4.36[luc2P MMTV Hygro] (Promega) and 5 ng Renilla using lip3000 transfection reagent (#L3000075, Thermofisher) for 24 h. For MR induction, HEK293T (1 × 10^4 cells/well) were transfected with 71 ng pCMV-MR gifted by Liu et al. 28, 24 ng of pGL4.36[luc2P MMTV Hygro] (Promega) and 5 ng Renilla using lip3000 transfec tion reagent for 24 h. For the antagonistic models, 10 nM /well progesterone for PC3 cells , 1 nM/well dexamethasone for HeLa, and 5 nM/well aldosterone for HEK293T cells were added to stimulate the cells. Meanwhile, each cell line was treated […]
For the agonistic models, the cells were directly treated with the compounds without any hormones. […]
hormones progesterone, dexamethasone, and aldosterone were considered as agonists for PR, GR, and MR, respectively. The luciferase activities were assessed using the Dual-Glo Luciferase system (#E1910, Promega).
Cell Cycle and Apoptosis for LNCaP cells
LNCaP were cultured in 6-well plate with 5× 10^5 cells/well, after incubated at 37 °C for […]
as §3

| IC50 [3] [nM] | GR antagonistic activity [4] | Structure (SMILES) | colony formation of LNCaP cells [1] | impact on cell cycle and apoptosis [2] |
| --- | --- | --- | --- | --- |
| 160 | largely ineffective | CC(=O)Cc1nsc(NC(=O)c2cc(-c3cccc(C(F)(F)F)c3)oc2C)n1 [Compound M17-B15] | significant inhibitory activities | do not show an obvious impact |
| – | largely ineffective | CNC(=O)c1ccc(N2C(=S)N(c3ccc(C#N)c(C(F)(F)F)c3)C(=O)C2(C)C)cc1F [Enz, enzalutamide, reference compound] | significant inhibitory activities | do not show an obvious impact |
